Assay results from EP1506011B1, “AN ANTIBODY SELECTIVE FOR A TUMOR NECROSIS FACTOR-RELATED APOPTOSIS-INDUCING LIGAND RECEPTOR AND USES THEREOF” (The UAB Research Foundation, priority 2001, dated 2003).
Residues, ends and D or L forms follow the SMILES beside them. *: point of attachment. Cbz = O=C(OCc1ccccc1)*; CH2F = FC*

Key:
Jurkat cells = assay: Caspase inhibition assay, Jurkat cells with TRA-8; format: cell-based, human; details: 50 ng/ml TRA-8 overnight
Description: Cell viability was determined by ATPLite, MTT, and PI exclusion assays after overnight culture. […] Cell viability was determined by ATPLite. […] Cell viability was determined by ATPLite. The results are presented as mean±SEM of triplicate cultures of two experiments. d. […] Cell viability was determined by ATPLite assay. […] Cell viability of hepatocytes was determined by the ATPLite assay. […] Cell viability was determined by the ATPLite assay.

2LMP xenografts = assay: Analysis of apoptosis in xenografts, TUNEL; format: in vivo, Athymic nude mice; details: for stained cells: day 14, 100 µg TRA-8 days 7 and 10, adriamycin 3 mg/kg or paclitaxel 10 mg/kg days 8 and 11, untreated 4%; for intense stained cells: day 14, same doses, untreated 1%
Description: One group of mice was untreated. The xenografts were dissected for the study of apoptosis on day 14 after tumor cell injection. The reason for the substantial reduction in treatment intensity compared to our standard treatment protocol was to allow adequate tumor tissue for analysis on day 14. Tunel assay for apoptosis in tumor xenografts was performed as follows. Five-micron paraffin sections of tissue were mounted on Superfrost/Plus slides and heated at 58°C for 1 h. Tissue sections were deparaffinized in three changes of xylene and rehydrated with one change of absolute ethanol, 95% ethanol, and 70% ethanol, each in 5-min increments. Then, the sections were placed in Tris-buffered saline (0.5M Tris base, 0.15 M NaCl, 0.0002% Triton X-100, pH 7.6). Apoptotic nuclei were detected using an Apop Tag Peroxidase kit (Intergen, Purchase, NY). Proteinase K (20 µg/ml in distilled deionized H2O) was added to the tissue specimens and incubated at room temperature for 15 min. Endogenous peroxidases were quenched with an aqueous solution of 3% hydrogen peroxide for 5 min. Sections were treated with an equilibration buffer for 30 min and then incubated with the TdT/enzyme (diluted in labeling reaction mix) for 1 h at 37°C using parafilm covers. During this incubation, the TdT enzyme binds the 3'-OH ends of DNA fragments and catalyzes the addition of digoxigenin-labeled and unlabeled deoxynucleotides. Negative controls were incubated with distilled H2O (diluted in labeling reaction mix) instead of the TdT enzyme. A stop buffer was added for 10 min at room temperature to terminate the labeling reaction. An anti-digoxigenin conjugate was added to each slide for 30 min. The chromagen 3,3' DAB was used to visualize the labeled 3' OH end of DNA fragments. The slides were then rinsed in deionized water and lightly counterstained with hematoxylin, dehydrated using graded alcohols and xylene and coverlsipped using Permount. Approximately 10 random fields were evaluated for percentage of Tunel stained and percentage of intensely stained apoptotic bodies throughout the tissue.

[1] = tested on: 2LMP human breast cancer xenografts; assay: TRA-8 therapy alone or with chemotherapy or radiation in mice bearing breast cancer xenografts; format: in vivo, Athymic nude mice; details: Figure 25 experiment; 200 µg TRA-8 i.p., adriamycin 6 mg/kg i.v.
Description: Athymic nude mice were injected s.c. with 3 x 10^7 2LMP cells. […] The growth of tumors was monitored over time. […] Tumor size and regression rates were determined.
Data from 6 independent experiments were analyzed by individual experiment. Treatment combinations were compared with respect to in vivo anti-tumor efficacy, i.e., inhibition of tumor growth, which was measured as three endpoints; extension of tumor doubling times, percentage of tumor regressions, and growth rates over time. The actual number of days at which the tumor doubled in surface area (product of two diameters) relative to baseline on day 7 after tumor cell injection was used in the doubling time analysis. The nonparametric Kruskal-Wallis test was used for median tumor doubling time comparisons between treatments. Fisher's exact test was used to compare the proportions of tumor regressions and relapse-free regressions across treatment groups. […]
A total of 166 animals, 10 treatment groups, and 6 independent experiments were included in the aggregate analysis. […] The median tumor doubling times were analyzed using the Kruskal-Wallis test and Fisher's exact test was used to compare the proportions of tumor regressions and relapse-free regressions across treatment groups.

PC-3 cells = assay: Combination study of TRA-8 with Paclitaxel, XTT viability; format: cell-based; details: Homo sapiens, PC-3, read-out: cell viability
Description: Human prostate cancer cell line PC-3 is obtained from American Tissue Culture Collection (ATCC) and maintained in F-12K Nutrient Mixture (21127-022, Gibco BRL) containing 10% fetal bovine serum (FBS, Hyclone), 1% L-Glutamine-200 mM (25030-149, Gibco BRL) and 0.5% Penicillin Streptomycin Solution (P-7539, Sigma). RPMI1640 medium (MED-008, IWAKI) supplemented with 10% FBS and 0.5% Penicillin Streptomycin Solution is used in the following experiment. Exponentially growing PC-3 cells are collected by trypsinization and washed twice with fresh medium. The cells are then counted, resuspended in fresh medium at a density of 5 x 10^4 cells/ml and distributed in triplicate into flat-bottomed 96 well plates (3598, Corning-Coster) in a total volume of 100 µl/well one day before the start of the experiment. A representative anti-cancer drug, Paclitaxel (169-18611, Wako) dissolved in dimethylsulfoxide (10 mg/ml) is diluted in fresh medium and then added to the 96-well plates containing the cells at 50 µl/well. The final concentrations of dimethylsulfoxide are less than 0.1%. […] After incubation for a further 24 hr, 50 µl of Minimum Essential Medium (11095-098, Gibco BRL) containing 1 mg/ml of XTT and […] of PMS is added to the wells and the plates are incubated for 6 hr. OD450 is then measured by SPECTRA MAX 250 (Molecular Devices) and the cell viability is calculated as follows.

Structure (SMILES) | inhibition of TRA-8-mediated cell death (Jurkat cells) | stained cells (2LMP xenografts) | intense stained cells (2LMP xenografts) | inhibition of tumor growth compared to untreated controls [1] | viability at 0.2 µM (PC-3 cells)
CC(NC(=O)C(NC(=O)OCc1ccccc1)C(C)C)C(=O)NC(CC(=O)O)C(=O)CF (stereo not drawn) [Z-VAD] (Cbz-Val-Ala-Asp-CH2F; configuration not given here) | completely inhibited | – | – | – | –
COc1cccc2c1C(=O)c1c(O)c3c(c(O)c1C2=O)C[C@@](O)(C(=O)CO)C[C@@H]3O[C@H]1C[C@H](N)[C@H](O)[C@H](C)O1 [Adriamycin, doxorubicin] | – | 8% | 6% | did not differ from controls | –
CC(=O)O[C@H]1C(=O)[C@@]2(C)[C@H]([C@H](OC(=O)c3ccccc3)[C@]3(O)C[C@H](OC(=O)[C@H](O)[C@@H](NC(=O)c4ccccc4)c4ccccc4)C(C)=C1C3(C)C)[C@]1(OC(C)=O)CO[C@@H]1C[C@@H]2O [Paclitaxel] | – | 7% | 2% | – | > 40%
